Data published in US20240209028A1, “CNP COMPOUNDS” (priority 2022, published 2024).
Starred links: 1 amine or outer side, 2 acyl side, 3 side chain; linkers in the order of their positions; H or OH if unused. Positions of bridges follow the written chain, without caps; N, C: chain ends. Residues, ends and D or L forms follow the SMILES beside them. *: point of attachment. C18 diacid = O=C(O)CCCCCCCCCCCCCCCCC(=O)*; γGlu = O=C(O)[C@H](CCC(=O)[*:2])N[*:1]; AEEA = NCCOCCOCC(=O)O

Legend:
[1] = PK after i.v. and s.c. administration to domestic LYD pig; conditions: female, in vivo
Protocol: (§1) The purpose of this study was to investigate pharmacokinetic and pharmacodynamic properties after intravenous (i.v.) and subcutaneous (s.c.) administration to Gottingen Minipig and domestic LYD pig, and to estimate bioavailability after s.c. dosing. Quantitative plasma analysis of CNP and cGMP levels were performed as described in
(§2) Animals and dosing: The pharmacokinetic and pharmacodynamic studies in Gottingen Minipig or domestic LYD pig were conducted at CRO Minerva Imaging or Novo Nordisk A/S, respectively. CNP compounds were dosed to normal female 1) Gottingen minipigs 6-12 months of age with an average weight of 22 kg or 2) domestic LYD pigs 4-5 months of age with and average weight of 80 kg. At least one week prior to dosing, permanent central venous catheters were implanted for blood sampling and intravenous (i.v.) dosing. For subcutaneous (s.c.) dosing, the pigs were ultrasound scanned and the optimal injection area laterally on the neck marked by a permanent tattoo. An insulin pen (NovoPen Echo or NovoPen 4) and insulin needle (NovoFine 32G/4 mm or NovoTwist 32G/5 mm) were used for accurate deposition of the CNP formulations in the subcutaneous fat tissue with the needle perpendicular to the skin.
(§3) CNP compounds were formulated according to the principles in General Methods of Preparation—Method G and were either A) 8 mM sodium phosphate, 250 mM glycerol, pH 6.5, B) 5 mM sodium acetate, 250 mM glycerol, pH 4.0, C) 5 mM sodium acetate, 240 mM propylene glycol, pH=4.0, D) 8 mM sodium phosphate, 250 mM glycerol, pH 7.5 or E) 20 mM sodium phosphate, 223 mM propylene glycol, pH 6.0.
(§4) Intravenously, the CNP compounds were dosed at 30-60 nmol/kg to Minipig and 15-43 nmol/kg to domestic pig using formulations A-E. Subcutaneously, the CNP compounds were dosed at 55-62 nmol/kg to Minipig and 20-30 nmol/kg to domestic pig using formulations A-D.
(§5) Sampling: Blood samples of approximately 1 mL were collected pre dose and up to 14 days post dose into EDTA-coated tubes (8 mM) for cGMP and CNP compound analysis by LC-MS. In few instances, cGMP was only analysed up to 48 hours post dose after intravenous dosing in domestic LYD pig. The blood samples were kept on wet ice for maximum 30 minutes until centrifugation for 10 minutes at 4° C. and minimum 1500G, and the plasma samples were stored at −20° C. until analysis.
(§6) Plasma concentration-time profiles were analyzed by non-compartmental PK analysis using Phoenix WinNonlin 8.1, Pharsight Inc., Mountain View, CA, USA. Calculation of the area under the plasma concentration-time curve (AUC) was based on the “linear up log down” method, and uniform weighting was used for estimation of the terminal rate constant (λz). S.c. bioavailability (F) was calculated as the dose-normalized AUC (AUC/dose) after s.c. administration divided by the AUC/dose after i.v. administration. […]

[2] = PK after i.v. and s.c. administration to Göttingen minipig; conditions: female, Göttingen, minipig, in vivo
Protocol: as §1, §2, §3, §4, §5, §6

[3] = Local tolerance of CNP compounds in rats (s.c. injection, histopathology); type: in vivo, Sprague Dawley rat; conditions: rat, s.c. 350 μl, about 1000 nmol/ml, 5 days post injection
Protocol: The purpose of this study was to evaluate the local tissue reaction to subcutaneous injection of CNP compounds in rats.
Procedure: The CNP compounds were formulated according to the principles described in General Methods of Preparation-Method G. Each Sprague Dawley rat (male, 10-11 weeks of age at arrival, Janvier, France) was dosed s.c. with 250 or 350 uL of the same compound (formulation concentration of 1000 nmol/mL) 120 h prior to tissue collection resulting in a total of two injections for each animal (Table 15). Injection site (flank or neck) was alternated across animals within each group and time point.
Animals had access to tap water and food (Altromin 1324) ad libitum. Group size was n=3 for vehicles and positive control, and n=4 for test compounds. Vehicles and compounds were formulated in either 5 mM sodium acetate, 250 mM glycerol, pH 4.0 or 8 mM sodium phosphate, 250 mM glycerol, pH 7.4 as shown in Table 16.
The animals were anesthetized with isoflurane. Via an electric shaving machine, a squared area of fur (2 cm×2 cm) was removed either from the rats' neck or flank area). For dosing, a new injection needle (25G canula, 1 ml syringe) was placed in the middle of the square border closest to the animal's head and the needle was inserted into the skin from the border towards the center of the square. […] On the day of tissue collection, the rats were deeply anaesthetized with isoflurane and euthanized by exsanguination. The injection sites were inspected and scored with regards to pathological lesions. The injection sites were evaluated, and any changes were noted (location, colour, shape and size), and sampled for histology preparation.
The injection sites were removed and fixed in 4% phosphate buffered neutral formaldehyde in sealed plastic containers.
Each injection site was subsequently cut into three sections 0.8 cm, 1.0 cm and 1.2 cm from the square border where the injection needle was placed, and, respectively, these sections represented the injection sites and the adjacent tissue. The tissue was processed, embedded in paraffin and cut in 2-4 μm thin sections, stained with the haematoxylin and eosin (H&E), and evaluated microscopically with a light microscope. Histopathological changes were graded on a 5-level scale (Minimal (Min), Mild (Mil), Moderate (Mod), Marked (Mar) and Severe (Sev)).

[4] = iv, Domestic LYD pig, i.v., read-out: CL (ml/hr/kg), Intravenous PK (converted)
[5] = iv, Domestic LYD pig, i.v., read-out: T½, iv (converted)

Row | Compound | bioavailability ([1]; LYD (domestic), pig, sc) [%] | clearance ([1]; LYD, pig, iv) [mL/h/kg] | half-life ([1]; LYD, pig, iv) [h] | half-life ([1]; LYD, pig, sc) [h] | clearance [1, 4] [mL/h/kg] | half-life [1, 5] [h] | also measured
1 | CC[C@H](C)[C@@H]1NC(=O)[C@H](CCCNC(=N)N)NC(=O)[C@H](CCC(=O)O)NC(=O)[C@H](CC(C)C)NC(=O)[C@H](CCCCN)NC(=O)[C@H](CC(C)C)NC(=O)CNC(=O)[C@H](Cc2ccccc2)NC(=O)[C@@H](NC(=O)CNC(=O)[C@H](CCCCN)NC(=O)[C@H](CO)NC(=O)[C@H](CC(C)C)NC(=O)CNC(=O)[C@H](CCCCN)NC(=O)[C@H](CCCCN)NC(=O)[C@H](CCC(N)=O)NC(=O)[C@H](C)NC(=O)CNC(=O)[C@H](CCCCN)NC(=O)[C@H](Cc2ccc(O)cc2)NC(=O)[C@H](CCCCN)NC(=O)[C@H](CCCNC(=N)N)NC(=O)[C@H](C)NC(=O)COCCOCCNC(=O)COCCOCCNC(=O)CC[C@H](NC(=O)CCCCCCCCCCCCCCCCC(=O)O)C(=O)O)CSSC[C@@H](C(=O)O)NC(=O)CNC(=O)[C@H](CC(C)C)NC(=O)CNC(=O)[C@H](CO)NC(=O)[C@H](CC(C)C)NC(=O)[C@H](CO)NC(=O)CNC1=O [Compound 0776] ({C18 diacid-γGlu-AEEA-AEEA}-ARKYKGAQKKGLSKGCFGLKLERIGSLSGLGC-OH; disulfide 16-32) | 7 | 1.34 | 29 | 41 |  |  | clearance ([2]; iv): 0.841 mL/h/kg; half-life ([2]; iv): 60 h; bioavailability ([2]; sc): 13%; half-life ([2]; sc): 56 h
2 | CC[C@H](C)[C@@H]1NC(=O)[C@H](CCCNC(=N)N)NC(=O)[C@H](CC(=O)O)NC(=O)[C@H](CC(C)C)NC(=O)[C@@H]2CCCN2C(=O)[C@H](CC(C)C)NC(=O)CNC(=O)[C@H](Cc2ccccc2)NC(=O)[C@@H](NC(=O)CNC(=O)[C@H](CCCCN)NC(=O)[C@H](CO)NC(=O)[C@H](CC(C)C)NC(=O)CNC(=O)[C@H](CCCCN)NC(=O)[C@H](CCCCN)NC(=O)[C@H](CCC(N)=O)NC(=O)[C@H](C)NC(=O)CNC(=O)[C@H](CCC(=O)O)NC(=O)[C@H](Cc2ccc(O)cc2)NC(=O)COCCOCCNC(=O)COCCOCCNC(=O)CC[C@H](NC(=O)CCCCCCCCCCCCCCCCC(=O)O)C(=O)O)CSSC[C@@H](C(=O)O)NC(=O)CNC(=O)[C@H](CC(C)C)NC(=O)CNC(=O)[C@H](CO)NC(=O)[C@H](CC(C)C)NC(=O)[C@H](CO)NC(=O)CNC1=O [Compound 1225] ({C18 diacid-γGlu-AEEA-AEEA}-YEGAQKKGLSKGCFGLPLDRIGSLSGLGC-OH; disulfide 13-29) |  |  |  |  | 3.23 | 15 | 
3 | CC[C@H](C)[C@@H]1NC(=O)[C@H](CCCNC(=N)N)NC(=O)[C@H](CC(=O)O)NC(=O)[C@H](CC(C)C)NC(=O)[C@@H]2CCCN2C(=O)[C@H](CC(C)C)NC(=O)CNC(=O)[C@H](Cc2ccccc2)NC(=O)[C@@H](NC(=O)CNC(=O)[C@H](CO)NC(=O)[C@H](CO)NC(=O)[C@H](CC(C)C)NC(=O)CNC(=O)[C@H](CCCCN)NC(=O)[C@H](CCCCN)NC(=O)[C@H](CCC(N)=O)NC(=O)[C@H](C)NC(=O)CNC(=O)[C@H](CCC(=O)O)NC(=O)[C@H](Cc2ccc(O)cc2)NC(=O)COCCOCCNC(=O)COCCOCCNC(=O)CC[C@H](NC(=O)CCCCCCCCCCCCCCCCC(=O)O)C(=O)O)CSSC[C@@H](C(=O)O)NC(=O)CNC(=O)[C@H](CC(C)C)NC(=O)CNC(=O)[C@H](CO)NC(=O)[C@H](CC(C)C)NC(=O)[C@H](CO)NC(=O)CNC1=O [Compound 1227] ({C18 diacid-γGlu-AEEA-AEEA}-YEGAQKKGLSSGCFGLPLDRIGSLSGLGC-OH; disulfide 13-29) |  |  |  |  | 5.54 | 11 | bioavailability ([1]; sc, Domestic LYD pig, s.c. bioavailability, read-out: F (%), Subcutaneous PK): 55%; half-life ([1]; sc, Domestic LYD pig, s.c., read-out: T½, sc (converted)): 9 h
4 | CC[C@H](C)[C@@H]1NC(=O)[C@H](CCCNC(=N)N)NC(=O)[C@H](CC(=O)O)NC(=O)[C@H](CC(C)C)NC(=O)[C@H](CCCCN)NC(=O)[C@H](CC(C)C)NC(=O)CNC(=O)[C@H](Cc2ccccc2)NC(=O)[C@@H](NC(=O)CNC(=O)[C@H](CCCCN)NC(=O)[C@H](CO)NC(=O)[C@H](CC(C)C)NC(=O)CNC(=O)[C@H](CCCCN)NC(=O)[C@H](CCCCN)NC(=O)[C@H](CCC(N)=O)NC(=O)[C@H](C)NC(=O)CNC(=O)[C@H](Cc2c[nH]cn2)NC(=O)[C@H](CCC(=O)O)NC(=O)COCCOCCNC(=O)COCCOCCNC(=O)CC[C@H](NC(=O)CCCCCCCCCCCCCCCCC(=O)O)C(=O)O)CSSC[C@@H](C(=O)O)NC(=O)CNC(=O)[C@H](CC(C)C)NC(=O)CNC(=O)[C@H](CO)NC(=O)[C@H](CC(C)C)NC(=O)[C@H](CO)NC(=O)CNC1=O [Compound 1235] | 25 | 3.28 | 20 | 29 |  |  | 
5 | CC[C@H](C)[C@@H]1NC(=O)[C@H](CCCNC(=N)N)NC(=O)[C@H](CC(=O)O)NC(=O)[C@H](CC(C)C)NC(=O)[C@@H]2CCCN2C(=O)[C@H](CC(C)C)NC(=O)CNC(=O)[C@H](Cc2ccccc2)NC(=O)[C@@H](NC(=O)CNC(=O)[C@H](CCCCN)NC(=O)[C@H](CO)NC(=O)[C@@H](NC(=O)CNC(=O)[C@@H](NC(=O)[C@H](Cc2c[nH]cn2)NC(=O)[C@H](CCC(N)=O)NC(=O)[C@H](C)NC(=O)CNC(=O)[C@H](Cc2c[nH]cn2)NC(=O)[C@H](Cc2ccc(O)cc2)NC(=O)[C@H](CCCCN)NC(=O)[C@H](CCCNC(=N)N)NC(=O)[C@H](C)NC(=O)COCCOCCNC(=O)COCCOCCNC(=O)CC[C@H](NC(=O)CC[C@H](NC(=O)CC[C@H](NC(=O)CCCCCCCCCCCCCCCCC(=O)O)C(=O)O)C(=O)O)C(=O)O)[C@@H](C)O)C(C)C)CSSC[C@@H](C(=O)O)NC(=O)CNC(=O)[C@H](CC(C)C)NC(=O)CNC(=O)[C@H](CO)NC(=O)[C@H](CC(C)C)NC(=O)[C@H](CO)NC(=O)CNC1=O [Compound 1420] ({C18 diacid-γGlu-γGlu-γGlu-AEEA-AEEA}-ARKYHGAQHTGVSKGCFGLPLDRIGSLSGLGC-OH; disulfide 16-32) |  |  |  |  |  |  | Number of injections by severity of necrosis: Mil. [3]: 1; Number of injections by severity of necrosis: NAD (No Abnormalities Detected) [3]: 3
